Assay: xn = mol fraction of the nth substance listed
Conditions: 101 kPa, Liquid, Taylor dispersion method, x1 = 0

`NCCC(=O)O` [3-aminopropanoic acid] + O gave a binary diffusion coefficient (298.2 K) of 9.37e-10 m2/s, a binary diffusion coefficient (303.2 K) of 1.06e-09 m2/s and a binary diffusion coefficient (313.2 K) of 1.35e-09 m2/s. It also gave a binary diffusion coefficient (323.2 K) of 1.64e-09 m2/s and a binary diffusion coefficient (333.2 K) of 1.97e-09 m2/s.

Compound `NCCCCCC(=O)O` [6-aminohexanoic acid] + O has a binary diffusion coefficient (298.2 K) of 7.28e-10 m2/s, a binary diffusion coefficient (303.2 K) of 8.25e-10 m2/s and a binary diffusion coefficient (313.2 K) of 1.05e-09 m2/s. It also gave a binary diffusion coefficient (323.2 K) of 1.29e-09 m2/s and a binary diffusion coefficient (333.2 K) of 1.57e-09 m2/s.

For `NCCCCCCC(=O)O` [7-aminoheptanoic acid] + O, the binary diffusion coefficient (298.2 K) was 6.88e-10 m2/s, the binary diffusion coefficient (303.2 K) was 7.86e-10 m2/s and the binary diffusion coefficient (313.2 K) was 1e-09 m2/s. For the same compound, the binary diffusion coefficient (323.2 K) was 1.23e-09 m2/s and the binary diffusion coefficient (333.2 K) was 1.48e-09 m2/s.

`NCCCC(=O)O` [4-aminobutanoic acid] + O showed a binary diffusion coefficient (298.2 K) of 8.38e-10 m2/s, a binary diffusion coefficient (303.2 K) of 9.54e-10 m2/s and a binary diffusion coefficient (313.2 K) of 1.2e-09 m2/s. For the same compound, the binary diffusion coefficient (323.2 K) was 1.49e-09 m2/s and the binary diffusion coefficient (333.2 K) was 1.79e-09 m2/s.

Compound `NCCCCC(=O)O` [5-aminovaleric acid] + O has a binary diffusion coefficient (298.2 K) of 7.76e-10 m2/s, a binary diffusion coefficient (303.2 K) of 8.73e-10 m2/s and a binary diffusion coefficient (313.2 K) of 1.12e-09 m2/s. The binary diffusion coefficient (323.2 K) was 1.39e-09 m2/s and the binary diffusion coefficient (333.2 K) was 1.66e-09 m2/s.

— the NIST ThermoML archive (doi:10.1021/je301370s)
